Where a name gives a salt, the structure may show the parent alone. Read-outs that look alike come from different tables or passages of the source.
What was measured:
[1] = tested on: EpiDerm™ EPI-200-MNA skin tissues
[2] = tested on: EpiDerm™ EPI-200-MNA skin tissues; remark: listed apart in the source
[3] = % VCC or % BN, lab(s) as stated in the text
[4] = three treatments, vs solvent control
[5] = two treatments, vs solvent control
[6] = lack of excessive cytotoxicity, 48-h protocol

## CCCOC(=O)c1cc(O)c(O)c(O)c1 [Propyl gallate]
[1]
  % MN-BN response in individual experiment(s), Lab B, 48-h protocol: did not significantly increase
  classification in the RSMN assay by Lab B: negative
[2]; [3]
  top/maximum dose tested, limited by excessive or strong cytotoxicity: 48 µg/cm^2

## COc1cc([C@@H]2c3cc4c(cc3[C@@H](O[C@@H]3O[C@@H]5CO[C@@H](C)O[C@H]5[C@H](O)[C@H]3O)[C@H]3COC(=O)[C@H]23)OCO4)cc(OC)c1O [Etoposide]
[2]; [3]
  top/maximum dose tested, limited by excessive or strong cytotoxicity: 1.6 µg/cm^2

## O=C1CN(/N=C/c2ccc([N+](=O)[O-])o2)C(=O)N1 [Nitrofurantoin]
[1]
  classification in the RSMN assay by Lab B: negative
[2]; human
  maximum dose tested without exceeding the cytotoxicity thresholds: 1600 µg/cm^2
  top/maximum dose tested, limited by excessive or strong cytotoxicity: 48 µg/cm^2

## Oc1cccc(O)c1 [Resorcinol]
[1]
  % MN-BN response in individual experiment(s), Lab B, 48-h protocol: significant increase in % MN-BN at the highest dose tested
  % MN-BN response in individual experiment(s), Lab B, 72-h protocol: did not induce any statistically significant increase
  classification in the RSMN assay by Lab B: negative

## COS(C)(=O)=O [Methyl methanesulfonate (MMS), Methyl methanesulfonate]
[1]; overall call
  classification in the RSMN assay by Lab B: positive
[2]; [3]
  top/maximum dose tested, limited by excessive or strong cytotoxicity: 16 µg/cm^2

## Cc1cn([C@H]2C[C@H](N=[N+]=[N-])[C@@H](CO)O2)c(=O)[nH]c1=O [Azidothymidine (AZT), Azidothymidine]
[1]; overall call
  classification in the RSMN assay by Lab A: positive
[1]; [4]
  % MN-BN response in individual experiment(s), Lab A, 72-h protocol: significant increases
[1]; [5]
  % MN-BN response in individual experiment(s), Lab A, 48-h protocol: significant increase
[2]; human
  top/maximum dose tested, limited by excessive or strong cytotoxicity: 700 µg/cm^2

## Cc1ccc(N)cc1N [2,4-Diaminotoluene (2,4-DAT), 2,4-Diaminotoluene]
[1]; overall call
  classification in the RSMN assay by Lab A: positive
  classification in the RSMN assay by Lab B: negative
  classification in the RSMN assay by Lab D: negative
[1]; [4]
  % MN-BN response in individual experiment(s), Lab B, 72-h protocol: negative
[1]; [5]
  % MN-BN response in individual experiment(s), Lab B, 48-h protocol: none of which caused a significant increase
  % MN-BN response in individual experiment(s), Lab D, 48-h protocol: negative
[2]; [3]
  top/maximum dose tested, limited by excessive or strong cytotoxicity: 700 µg/cm^2

## CC1(C)S[C@@H]2[C@H](NC(=O)[C@H](N)c3ccccc3)C(=O)N2[C@H]1C(=O)O [Ampicillin sodium salt]
[1]; overall call
  classification in the RSMN assay by Lab A: negative
[1]; [5]
  % MN-BN response in individual experiment(s), Lab A, 48-h protocol: no significant increases
[2]; [6]
  maximum dose tested without exceeding the cytotoxicity thresholds: 1600 µg/cm^2

## COc1cc2c(c(OC)c1OC)-c1ccc(OC)c(=O)cc1[C@@H](NC(C)=O)CC2 [Colchicine]
[1]; overall call
  classification in the RSMN assay by Lab A: positive
  classification in the RSMN assay by Lab C: positive
[1]; [5]
  % MN-BN response in individual experiment(s), Lab A, 48-h protocol: highly significant increases
  % MN-BN response in individual experiment(s), Lab C, 48-h protocol: highly significant increases
[2]; [3]
  top/maximum dose tested, limited by excessive or strong cytotoxicity: 0.03 µg/cm^2

## CCc1cc(C(N)=S)ccn1 [Ethionamide]
[1]
  % MN-BN response in individual experiment(s), Lab A, 48-h protocol: negative
  % MN-BN response in individual experiment(s), Lab B, 48-h protocol: negative
  % MN-BN response in individual experiment(s), Lab B, 72-h protocol: negative
  % MN-BN response in individual experiment(s), Lab C, 48-h protocol: negative
  classification in the RSMN assay by Lab A: negative
  classification in the RSMN assay by Lab B: negative
  classification in the RSMN assay by Lab C: negative
[2]; human
  % VCC or BN (cytotoxicity thresholds exceeded): < 40 % VCC or BN
  top/maximum dose tested, limited by excessive or strong cytotoxicity: 30–160 µg/cm^2

## O=c1[nH]cc(F)c(=O)[nH]1 [5-Fluorouracil]
[1]
  % MN-BN response in individual experiment(s), Lab B, 48-h protocol: negative results
  % MN-BN response in individual experiment(s), Lab B, 72-h protocol: negative results
  classification in the RSMN assay by Lab A: positive
  classification in the RSMN assay by Lab B: negative

## CCOS(C)(=O)=O [Ethyl methanesulfonate (EMS), Ethyl methanesulfonate]
[1]; overall call
  classification in the RSMN assay by Lab A: positive
  classification in the RSMN assay by Lab C: positive
[1]; [4]
  % MN-BN response in individual experiment(s), Lab A, 72-h protocol: significant increase in the % MN-BN at multiple doses
[1]; [5]
  % MN-BN response in individual experiment(s), Lab C, 48-h protocol: clear and dose-dependent increase
[2]; [3]
  top/maximum dose tested, limited by excessive or strong cytotoxicity: 360 µg/cm^2

## CCCCCl [N-Butyl chloride]
[1]
  % MN-BN response in individual experiment(s), Lab A, 72-h protocol: negative results
  % MN-BN response in individual experiment(s), Lab B, 48-h protocol: no significant increases
  % MN-BN response in individual experiment(s), Lab C, 48-h protocol: no significant increase
  % MN-BN response in individual experiment(s), Lab C, 72-h protocol: no significant increase
  % MN-BN response in individual experiment(s), Lab D, 48-h protocol: no significant increases
  classification in the RSMN assay by Lab A: negative
  classification in the RSMN assay by Lab B: negative
  classification in the RSMN assay by Lab C: negative
  classification in the RSMN assay by Lab D: negative

## O=[N+]([O-])c1cccc2ccccc12 [1-Nitronaphthalene]
[1]
  classification in the RSMN assay by Lab A: negative
[2]; [3]
  top/maximum dose tested, limited by excessive or strong cytotoxicity: 50–80 µg/cm^2

## Oc1ccc(Cl)cc1Cl [2,4-Dichlorophenol]
[1]; overall call
  classification in the RSMN assay by Lab A: negative
  classification in the RSMN assay by Lab D: negative
[1]; [5]
  % MN-BN response in individual experiment(s), Lab A, 48-h protocol: no statistically significant increases
  % MN-BN response in individual experiment(s), Lab D, 48-h protocol: negative
[2]; [3]
  top/maximum dose tested, limited by excessive or strong cytotoxicity: 50 µg/cm^2

## O=[N+]([O-])c1ccc(O)cc1 [4-Nitrophenol]
[1]; overall call
  classification in the RSMN assay by Lab A: negative
  classification in the RSMN assay by Lab B: negative
  classification in the RSMN assay by Lab C: negative
  classification in the RSMN assay by Lab D: negative
[1]; [4]
  % MN-BN response in individual experiment(s), Lab A, 72-h protocol: negative
  % MN-BN response in individual experiment(s), Lab C, 72-h protocol: negative
[1]; [5]
  % MN-BN response in individual experiment(s), Lab A, 48-h protocol: negative
  % MN-BN response in individual experiment(s), Lab B, 48-h protocol: did not find any evidence for an increase
  % MN-BN response in individual experiment(s), Lab C, 48-h protocol: negative
  % MN-BN response in individual experiment(s), Lab D, 48-h protocol: did not find any evidence for an increase
[2]; [3]
  top/maximum dose tested, limited by excessive or strong cytotoxicity: 20–48 µg/cm^2

## CCC(=O)OCC(=O)[C@@]1(OC(=O)CC)[C@@H](C)C[C@H]2[C@@H]3CCC4=CC(=O)C=C[C@]4(C)[C@@]3(Cl)[C@@H](O)C[C@@]21C [Beclomethasone dipropionate]
[1]; overall call
  classification in the RSMN assay by Lab B: negative
[1]; [5]
  % MN-BN response in individual experiment(s), Lab B, 48-h protocol: no significant increases
[2]; [6]
  maximum dose tested without exceeding the cytotoxicity thresholds: 1600 µg/cm^2

## Cc1c(N)cccc1N [2,6-Diaminotoluene (2,6-DAT), 2,6-Diaminotoluene]
[1]
  classification in the RSMN assay by Lab D: negative
[2]; [3]
  top/maximum dose tested, limited by excessive or strong cytotoxicity: 350 µg/cm^2

## C1CC2OC2CC1C1CO1 (stereo not shown) [4-Vinyl-1-cyclohexene diepoxide]
[1]; overall call
  classification in the RSMN assay by Lab A: positive
  classification in the RSMN assay by Lab B: positive
  classification in the RSMN assay by Lab C: positive
[1]; [4]
  % MN-BN response in individual experiment(s), Lab C, 72-h protocol: equivocal response
[1]; [5]
  % MN-BN response in individual experiment(s), Lab B, 48-h protocol: significant increase
  % MN-BN response in individual experiment(s), Lab C, 48-h protocol: negative
  % MN-BN response in individual experiment(s), Lab D, 48-h protocol: negative
[2]; [3]
  top/maximum dose tested, limited by excessive or strong cytotoxicity: 64 µg/cm^2

## OCC(Br)CBr (stereo not shown) [2,3-Dibromo-1-propanol]
[1]; overall call
  classification in the RSMN assay by Lab A: positive
[2]; [3]
  top/maximum dose tested, limited by excessive or strong cytotoxicity: 500–600 µg/cm^2

## OC[C@@H](O)[C@@H](O)[C@H](O)[C@H](O)CO [D-Mannitol]
[1]; overall call
  classification in the RSMN assay by Lab B: negative
  classification in the RSMN assay by Lab D: negative
[1]; [5]
  % MN-BN response in individual experiment(s), Lab B, 48-h protocol: no significant increase
  % MN-BN response in individual experiment(s), Lab D, 48-h protocol: no significant increase
[2]; [6]
  maximum dose tested without exceeding the cytotoxicity thresholds: 1600 µg/cm^2

## CCCCNC(=O)NS(=O)(=O)c1ccc(C)cc1 [Tolbutamide]
[1]; early Phase 2a only
  classification in the RSMN assay by Lab A: positive
[1]; later Phase 2a testing only, expected outcome negative
  classification in the RSMN assay by Lab A: correctly classified
[1]; overall call
  classification in the RSMN assay by Lab B: negative
  classification in the RSMN assay by Lab C: negative
[1]; [5]
  % MN-BN response in individual experiment(s), Lab C, 48-h protocol: negative results

## CC(=O)O[C@H]1C(=O)[C@@]2(C)[C@H]([C@H](OC(=O)c3ccccc3)[C@]3(O)C[C@H](OC(=O)[C@H](O)[C@@H](NC(=O)c4ccccc4)c4ccccc4)C(C)=C1C3(C)C)[C@]1(OC(C)=O)CO[C@@H]1C[C@@H]2O [Taxol]
[1]; overall call
  classification in the RSMN assay by Lab C: positive
[1]; [5]
  % MN-BN response in individual experiment(s), Lab C, 48-h protocol: clear and dose-dependent increase
[2]; [3]
  top/maximum dose tested, limited by excessive or strong cytotoxicity: 1.6 µg/cm^2

## c1ccc2c(c1)ccc1ccccc12 [Phenanthrene]
[1]
  % MN-BN response in individual experiment(s), Lab B, 48-h protocol: negative
  % MN-BN response in individual experiment(s), Lab B, 72-h protocol: no evidence for an increase
  % MN-BN response in individual experiment(s), Lab C, 48-h protocol: negative
  % MN-BN response in individual experiment(s), Lab D, 48-h protocol: negative
  classification in the RSMN assay by Lab A: positive
  classification in the RSMN assay by Lab B: negative
  classification in the RSMN assay by Lab C: negative
  classification in the RSMN assay by Lab D: negative
[2]; lab(s) as stated in the text
  top dose, limited by precipitation on the surface of the skin tissues: 200–400 µg/cm^2
[2]; second 48-h experiment, Lab A
  doses at which precipitation was seen: ≥ 400 µg/cm^2

## O=C(O)Cc1ccccc1Nc1c(Cl)cccc1Cl [Diclofenac]
[1]; overall call
  classification in the RSMN assay by Lab A: positive
  classification in the RSMN assay by Lab B: positive
  classification in the RSMN assay by Lab D: positive
[1]; reported by Lab A
  apoptotic cells alongside the increase of micronuclei: strong increase of apoptotic cells
[1]; [5]
  % MN-BN response in individual experiment(s), Lab A, 48-h protocol: significant increases
[2]; [3]
  top/maximum dose tested, limited by excessive or strong cytotoxicity: 50–80 µg/cm^2

## Oc1ccccc1 [Phenol]
[1]
  % MN-BN response in individual experiment(s), Lab D, 48-h protocol: significant increase in the % MN-BN was observed only at the highest dose tested
  classification in the RSMN assay by Lab D: negative

## Oc1cccc2cccnc12 [8-Hydroxyquinoline]
[1]
  classification in the RSMN assay by Lab D: negative
[2]; human
  top/maximum dose tested, limited by excessive or strong cytotoxicity: 48 µg/cm^2

## COC(=O)C1=C(C)NC(C)=C(C(=O)OC)C1c1ccccc1[N+](=O)[O-] [Nifedipine]
[1]; overall call
  classification in the RSMN assay by Lab A: negative

## COc1cc(/C=C/C(=O)CC(=O)/C=C/c2ccc(O)c(OC)c2)ccc1O [Curcumin]
[1]; overall call
  classification in the RSMN assay by Lab B: positive
[2]; [3]
  top/maximum dose tested, limited by excessive or strong cytotoxicity: 160 µg/cm^2

From article PMC8081377 (Mutagenesis, 2021)
